Results on one compound are retold here after patent publication EP0958822A1, “THE OCULAR HYPOTENSIVE ACTIVE COMPOSITIONS” (Lin, Tongho, priority 1996, dated 1998).

The assay has as its system New Zealand albino rabbits. Kind of assay: IOP recovery after hypertonic saline infusion (ocular hypertensive rabbit model). It counts as in vivo. The note with it: 50 µl instilled in eye. On the procedure:
1981, vol 13 pp72-79. New Zealand albino rabbits of either sex were used in the study. A 20 % hypertonic saline solution was infused at the speed of 1 ml […] for 10 minutes through the marginal ear vein with an infusion pump. […] Then the IOP of both eyes were measured with a Tono-Pen XL Tonometer (Mentor, Norwell , MA) at 30 minute and 10 minute intervals before the experiment. At the time of commencement, as well as at 10, 20, 40, 60, and 80 min intervals measurements were taken. Then measurements were repeated at every 30 minute intervals. […] The IOP recovery curve acquired had shifted to the right and below the curve of the controlled group.

Molecules are shown by their SMILES.

On to `CCN1CCCC1CNC(=O)c1cc(S(N)(=O)=O)ccc1OC` (centres unmarked) [Sulpiride], for which, for the setting “0.5% drop solution, 20 % hypertonic saline infusion”, the IOP recovery time result is on record as “didn't show a significant ability in decreasing IOP”. Moreover, the “decreasing IOP” value (20% drop solution) was “it did so when the concentration was raised to 20%”.
